Measured values: patent US10538554B2, “Peptides and uses therefor as antiviral agents” (priority 2015, dated 2020)
Where two headings read alike, the source gives them in different places. Bridge positions count the residues as written; N and C are the ends. Square brackets hold non-standard residues; d marks the D form. Peptide text beside a SMILES is read from it.

What was measured:
H1N1 A/NY/18/2009 = conditions: A/NY/18/2009, 48 h; for % Inhibition Pdm 2009: 10 μM
H1N1 A/PR/8/1934 [1] = conditions: A/PR/8/1934, 48 h; for % Inhibition: 1 μM; for % Inhibition PR/8: 10 μM
[2] = system: Influenza B/MALAYSIA/2506/04
H3N8 A/Miami/2/63 = conditions: A/Miami/2/63, 48 h
H9N2 A/Iran/16/2000 = conditions: 48 h
H3N2 A/HK/8/1968 = conditions: A/HK/8/1968, 48 h
[3] = system: H1N1 A1/Malaysia/302/1954; conditions: A1/Malaysia/302/1954, 48 h
H1N1 A/PR/8/1934 [4] = assay: microbe, parasite or virus in culture; conditions: Influenza A virus, MDCK, read-out: IC50 PR8
[5] = system: avian influenza A virus H9N2; conditions: cited from earlier work
[6] = system: H5N1 A/Kampung pasir/5744/2004; conditions: A/Kampung pasir/5744/2004, 48 h

Question: With CC[C@@H](C)[C@H]1NC(=O)[C@@H](Cc2ccccc2)NC(=O)[C@@H]([C@H](C)O)NC(=O)[C@@H](Cc2ccccc2)NC(=O)[C@@H](Cc2c[nH]c3ccccc23)NC(=O)[C@@H](Cc2c[nH]c3ccccc23)NC(=O)[C@H](NC(=O)[C@H](CCCCN)NC(=O)[C@H](CCCCN)NC(=O)[C@H](CCCNC(=N)N)NC(=O)[C@@H](N)CCCNC(=N)N)CSSC[C@H](C(=O)O)NC(=O)[C@@H](C)NC1=O [PSP VI A1, H-RRKKcwwftfiac-OH] (H-RRKK[dC][dW][dW][dF][dT][dF][dI][dA][dC]-OH; disulfide 5-13) as the molecule, how does the IC50 (H1N1 A/NY/18/2009) read?
Answer: 0.13 nM

Question: And the IC50 (H1N1 A/PR/8/1934 [1])?
Answer: 4 nM

Question: And the “% Inhibition” value (H1N1 A/PR/8/1934 [1])?
Answer: 98.5%

Question: What about the IC50 [2] of the same molecule?
Answer: 1.2 nM

Question: And the IC50 (H3N8 A/Miami/2/63)?
Answer: 2 nM

Question: What about the IC50 (H9N2 A/Iran/16/2000) of the same molecule?
Answer: 10.4 nM

Question: And the IC50 (H3N2 A/HK/8/1968)?
Answer: 1.9 nM

Question: And the IC50 [3]?
Answer: 5 nM

Question: For CCC(CC)O[C@@H]1C=C(C(=O)O)C[C@H](N)[C@H]1NC(C)=O [Oseltamivir acid], which IC50 (H1N1 A/PR/8/1934 [4]) is on record?
Answer: 140 nM

Question: For C[C@@H](O)[C@@H]1NC(=O)[C@H](CCCCN)NC(=O)[C@H](CO)NC(=O)[C@H](CCCNC(=N)N)NC(=O)[C@H](Cc2ccccc2)NC(=O)[C@H](CC(=O)O)NC(=O)[C@H](CC(N)=O)NC(=O)[C@@H](N)CSSC[C@@H](C(=O)O)NC1=O [C-P1, H-CNDFRSKTC-OH, reference compound] (H-CNDFRSKTC-OH; disulfide 1-9), which “inhibition of avian influenza A virus H9N2 replication” value [5] is on record?
Answer: modest efficacy

Question: What about the IC50 (H9N2 A/Iran/16/2000) of the same molecule?
Answer: > 320000 nM

Question: Which IC50 (H1N1 A/NY/18/2009) does the source give for CC[C@@H](C)[C@H]1NC(=O)[C@@H](Cc2ccccc2)NC(=O)[C@@H](Cc2ccccc2)NC(=O)[C@@H](Cc2ccccc2)NC(=O)[C@@H](Cc2c[nH]c3ccccc23)NC(=O)[C@@H]([C@H](C)O)NC(=O)[C@H](NC(=O)[C@H](CCCCN)NC(=O)[C@H](CCCCN)NC(=O)[C@H](CCCNC(=N)N)NC(=O)[C@@H](N)CCCNC(=N)N)CSSC[C@H](C(=O)O)NC(=O)[C@@H](CC(N)=O)NC1=O [PSP IV A5, H-RRKKctwfffinc-OH] (H-RRKK[dC][dT][dW][dF][dF][dF][dI][dN][dC]-OH; disulfide 5-13) here?
Answer: 1000 nM

Question: And the “% Inhibition Pdm 2009” value (H1N1 A/NY/18/2009)?
Answer: 98%

Question: What about the IC50 (H1N1 A/PR/8/1934 [1]) of the same molecule?
Answer: 400 nM

Question: And the “% Inhibition PR/8” value (H1N1 A/PR/8/1934 [1])?
Answer: 99%

Question: What about the IC50 [6] of the same molecule?
Answer: 550 nM

Question: What about the IC50 (H3N8 A/Miami/2/63) of the same molecule?
Answer: 300 nM

Question: And the “% inhibition H3N8” value (H3N8 A/Miami/2/63; 10 μM)?
Answer: 98%

Question: What about the IC50 (H9N2 A/Iran/16/2000) of the same molecule?
Answer: 760 nM

Question: And the “% inhibition H9N2” value (H9N2 A/Iran/16/2000; 10 μM)?
Answer: 93%

Question: What about the IC50 (H3N2 A/HK/8/1968) of the same molecule?
Answer: 300 nM

Question: And the “% inhibition H3N2” value (H3N2 A/HK/8/1968; 10 μM)?
Answer: 99%

Question: What about the IC50 [3] of the same molecule?
Answer: 300 nM

Question: What about the “% inhibition H1N1” value ([3]; 10 μM) of the same molecule?
Answer: 99%

Question: Which IC50 (H1N1 A/NY/18/2009) does the source give for CC[C@@H](C)[C@H]1NC(=O)[C@@H](Cc2ccccc2)NC(=O)[C@@H](CCCNC(=N)N)NC(=O)[C@@H](Cc2ccccc2)NC(=O)[C@@H](Cc2c[nH]c3ccccc23)NC(=O)[C@@H]([C@H](C)O)NC(=O)[C@H](NC(=O)[C@H](CCCCN)NC(=O)[C@H](CCCCN)NC(=O)[C@H](CCCNC(=N)N)NC(=O)[C@@H](N)CCCNC(=N)N)CSSC[C@H](C(=O)O)NC(=O)[C@@H](CC(N)=O)NC1=O [PSP III B5, H-RRKKctwfrfinc-OH] (H-RRKK[dC][dT][dW][dF][dR][dF][dI][dN][dC]-OH; disulfide 5-13) here?
Answer: 1170 nM

Question: What about the “% Inhibition Pdm 2009” value (H1N1 A/NY/18/2009) of the same molecule?
Answer: 73%

Question: What about the IC50 (H1N1 A/PR/8/1934 [1]) of the same molecule?
Answer: 1200 nM

Question: And the “% Inhibition PR/8” value (H1N1 A/PR/8/1934 [1])?
Answer: 88%

Question: What about the IC50 [6] of the same molecule?
Answer: 220 nM

Question: What about the IC50 (H3N8 A/Miami/2/63) of the same molecule?
Answer: 150 nM

Question: And the “% inhibition H3N8” value (H3N8 A/Miami/2/63; 10 μM)?
Answer: 92%

Question: And the “% inhibition H3N8” value (H3N8 A/Miami/2/63; 50 μM)?
Answer: 100%

Question: What about the IC50 (H9N2 A/Iran/16/2000) of the same molecule?
Answer: 900 nM

Question: What about the “% inhibition H9N2” value (H9N2 A/Iran/16/2000; 10 μM) of the same molecule?
Answer: 76%

Question: And the “% inhibition H9N2” value (H9N2 A/Iran/16/2000; 50 μM)?
Answer: 90%

Question: And the IC50 (H3N2 A/HK/8/1968)?
Answer: 1400 nM

Question: What about the “% inhibition H3N2” value (H3N2 A/HK/8/1968; 10 μM) of the same molecule?
Answer: 87%

Question: What about the “% inhibition H3N2” value (H3N2 A/HK/8/1968; 50 μM) of the same molecule?
Answer: 100%

Question: And the IC50 [3]?
Answer: 1600 nM

Question: What about the “% inhibition H1N1” value ([3]; 10 μM) of the same molecule?
Answer: 80%

Question: What about the “% inhibition H1N1” value ([3]; 50 μM) of the same molecule?
Answer: 96%

Question: What does the source list for CC[C@@H](C)[C@H]1NC(=O)[C@@H](Cc2ccccc2)NC(=O)[C@@H]([C@H](C)O)NC(=O)[C@@H](Cc2ccccc2)NC(=O)[C@@H](Cc2c[nH]c3ccccc23)NC(=O)[C@@H]([C@H](C)O)NC(=O)[C@H](NC(=O)[C@H](CCCCN)NC(=O)[C@H](CCCCN)NC(=O)[C@H](CCCNC(=N)N)NC(=O)[C@@H](N)CCCNC(=N)N)CSSC[C@H](C(=O)O)NC(=O)[C@@H](CC(N)=O)NC1=O [PSP IV A17, H-RRKKctwftfinc-OH] (H-RRKK[dC][dT][dW][dF][dT][dF][dI][dN][dC]-OH; disulfide 5-13)?
Answer: IC50 (H1N1 A/NY/18/2009): 33 nM; % Inhibition Pdm 2009 (H1N1 A/NY/18/2009): 97%; IC50 (H1N1 A/PR/8/1934 [1]): 260 nM; % Inhibition (H1N1 A/PR/8/1934 [1]): <20%; % Inhibition PR/8 (H1N1 A/PR/8/1934 [1]): 97%; IC50 [2]: 990 nM; % inhibition H3N8 (H3N8 A/Miami/2/63; 10 μM): 97%; % inhibition H9N2 (H9N2 A/Iran/16/2000; 10 μM): 92%; IC50 (H3N2 A/HK/8/1968): 56 nM; % inhibition H3N2 (H3N2 A/HK/8/1968; 10 μM): 97%; IC50 [3]: 51 nM; % inhibition H1N1 ([3]; 10 μM): 91%
